Results taken from PMC5585294, “A potent series targeting the malarial cGMP-dependent protein kinase clears infection and blocks transmission” (Nature Communications, 2017).
Read-outs that look alike come from different tables or passages of the source.

What was measured:
[1] = Stability in mouse liver microsomes; conditions: mouse, microsomes, 0.5 h
Experimental: (§1) Compound mlm hlm mLogD PAMPA HepG2 name (%rem) (%rem) (nm/s) (IC50 µM)
(§2) Supplementary Table 2. Compound Properties. MLM, HLM, mLogD and PAMPA . mlm (%rem): % of compound remaining after 30 minutes’ incubation with mouse liver microsomes; hlm (%rem): % of compound remaining after 40 minutes’ incubation with human liver microsomes; mLogD: measured LogD at pH 7.4; PAMPA: parallel artificial membrane permeability assay; HepG2: Cytotoxicity assay using HepG2 cells; n.t.: not tested.

[2] = test system: P. falciparum gatekeeper mutant (T618Q) stage V gametocytes; experiment: Gametogenesis (rounding up) assay, T618Q stage V gametocytes; assay type: cell-based, Plasmodium falciparum; conditions: 30 µM xanthurenic acid; 2 µM ML1, 1 µM ML10
P. falciparum 3D7 = experiment: Hypoxanthine incorporation growth inhibition assay, asexual blood stage, wild-type 3D7; assay type: cell-based, Plasmodium falciparum; conditions: 3D7 asexual blood stage growth, 72 h, +/- s.e.m.; for EC50: read-out: EC50 WT
Experimental: Hypoxanthine incorporation assays[36] were performed on P. falciparum asexual blood stage parasites (wild-type 3D7 or T618Q gatekeeper mutant) to determine EC50 values for test compounds. Mixed staged parasites (primarily rings) were added to 96 well plates containing compounds at concentrations of 50 μM–0.3 nM. […] Assays were carried out in triplicate at least twice.

in vivo = conditions: BALB/c, mouse, po
Description: Supplementary Figure 4. Plasma concentrations over time in rodent malaria models. […] Error bars show the standard deviation. (1 picture or pasted object on this page, not shown here)

physchem = conditions: pH 7.4
Experimental: as §1, §2

[3] = test system: P. falciparum (NF54) gametocytes; experiment: Standard membrane feeding assay (SMFA), gametocytes fed to Anopheles stephensi; assay type: cell-based, Plasmodium falciparum; conditions: Plasmodium falciparum, NF54; gametocytes pre-incubated 24 h, oocysts counted day 7 post-feed; read-out: IC50 for reduction of the intensity of infection (oocysts)
Experimental: Mature P. falciparum (NF54) gametocytes (14 day culture, 0.3–0.5% gametocytes, 2% haematocrit) were obtained from an automated tipper system and incubated with compound for 24 h as previously described. Anopheles stephensi (Sind-Kasur Nijmegen strain[39] were reared at 30 °C and 70–80% humidity, while exposed to a 12/12 h day/night cycle. On the day of feeding, the gametocyte culture was adjusted to 50% hematocrit with human red blood cells and human serum and fed to 3–5 day old mosquitoes using a glass membrane mini-feeder system containing 0.35 ml of the P. falciparum culture/compound mix[40]. Unfed and partially fed mosquitoes were removed after feeding and blood fed females were maintained at 26 °C and 70–80% humidity. Up to 20 surviving mosquitoes were collected on day 7 post-infection and oocysts were visualized using a 1% merchurochrome solution and quantified by microscopy. IC50 values were determined by logistic regression using Maximum Likelihood Estimation to find best fit[41].

SMILES: Cc1cn2c(-c3ccnc(NCC4CC4)n3)c(-c3ccc(F)c(NS(C)(=O)=O)c3)nc2cc1CN(C)C [ML10]
- mlm (%rem) [1]: 59%
- rounding up of T618Q gametocytes [2]: insensitive
- EC50 (P. falciparum 3D7): 2.1 nM
- EC50 (P. falciparum 3D7; Plasmodium falciparum, 3D7, 72 h): ~2 nM
- EC90 (P. falciparum 3D7; Plasmodium falciparum): 4.5 nM
- half-life (in vivo; 25 mg/kg): 48 min
- concentration at 30 min (in vivo; 50 mg/kg): 10.4 µM
- concentration at 60 min (in vivo; 50 mg/kg): ~8.4 µM
- concentration at 4 h (in vivo; 50 mg/kg): < 0.084 µM
- half-life (in vivo; 50 mg/kg): 66 min
- logD (physchem): 2.8
- IC50 [3]: 41.3 nM
